# Values joined by “and” are separate entries in the source; they are usually repeats but may differ in a detail not shown here. Equal values may be shown once.
# Legend:
# Type in all cases: in vivo, human
# [1] = Adverse events and safety laboratory monitoring; conditions: 50 mg every 6 hours for 9 days
# Method: All subjects were instructed to record any adverse effects and to report them to study personnel, and women were advised to keep a record of any abnormal menstrual bleeding. For proper safety monitoring, subjects returned approximately one week (day 19) and three weeks (day 33) after the discontinuation of the study drug for both treatment arms. During this safety visit, serum electrolytes, renal and liver function, and complete blood count were measured, as well as evaluation and treatment for potential treatment-related abnormalities/adverse events.
# [2] = tested on: hypothalamic-pituitary-adrenal axis; assay: 24-hour profile of ACTH and cortisol
# Method: (§1) To reduce potential variability associated with estrogen in premenopausal women, testing was performed in the early follicular phase (days 1-7 of menstrual cycle). Baseline height and weight were measured after an overnight fast. Subjects received an isocaloric regular diet during the inpatient part of the study, and those on metformin took the same dose throughout the study. Baseline testing took place took place over three inpatient days at the NIH Clinical Center, during which fasting blood was drawn, 24-hour urine was collected, 24-hour serial blood draws were obtained, and patients received both a […] (FSIVGTT) and a 75-g oral glucose tolerance test (OGTT). Subjects were then randomized to receive placebo or mifepristone for 9 days, of which the first 6 days the subjects returned home, and the final 3 days subjects underwent the same metabolic testing as during the baseline period. Subjects randomized to the mifepristone treatment arm were instructed to take one capsule (50 mg) every 6 hours (200 mg/day) over the course of 9 days. The placebo treatment arm received the same instructions to take one capsule every 6 hours over the course of the 9-day treatment period. Following the completion of the post-drug testing, subjects entered a 6-8 week washout period, after which they were crossed over to the other treatment arm, serving as their own controls for the study drug treatments.
# Data shown are mean±SEM with p values provided for the effects of treatment group, time, and the treatment-time interaction, which was obtained with repeated-measures ANOVA with post-hoc Bonferroni's test. Tukey box and whisker plots show ACTH (B) and cortisol (D) area under the curve for the 24-hour period. Top and bottom box limits represent the 75th and 25th percentile, respectively; midlines represent the median, and top and bottom whiskers represent the 75th percentile plus 1.5 of the interquartile range (IQR) and the 25th percentile minus 1.5 IQR, respectively. Post-treatment values were adjusted for baseline and treatment group using mixed-model regression. P values indicate significance for comparisons between mifepristone and placebo.
# [3] = tested on: overweight or obese subjects with prediabetes or mild type 2 diabetes; assay: Fasting plasma glucose, insulin and fasting surrogate indices (HOMA-IR, QUICKI, Adipo-IR) in placebo-controlled crossover trial; conditions: 50 mg every 6 hours for 9 days, n=16
# Method: A randomized, placebo-controlled, double-blind crossover trial was conducted to evaluate the use of an anti-glucocorticoid as a means for ameliorating insulin resistance. Mifepristone, 50 mg, or a placebo, was administered every six hours for nine days to sixteen overweight or obese (BMI 25-37 kg/m^2) subjects (seven women). Participant ages ranged from 48 to 64 years. Ten had prediabetes and six had mild diabetes type II (HgbA1c less than 7%). Treatment of the glucose disorder with diet or a stable dose of metformin (used by two patients) was maintained for three (3) months before the study. The interventions were nine days of mifepristone or placebo treatment followed by a six (6) to eight (8) week wash out and cross over to the other arm. At baseline and at the end of each treatment period, parameters of insulin sensitivity were assessed by a frequently sampled intravenous glucose tolerance test (FSIVGTT) and an oral glucose tolerance test (OGTT). A whole body glucose disposal index of insulin sensitivity (SI) was derived using a minimal model analysis. Adipose tissue-SI, which reflects insulin-induced free fatty acid suppression, was estimated by the log-linear slope of free fatty acid levels and the AUC of insulin during the FSIVGTT. Matsuda index, oral glucose insulin sensitivity index (OGIS, ml/min/m^2), and hepatic insulin resistance index (HIRI, mg/dl×microU/ml×10^5) were derived from OGTT. Adipo-IR, a surrogate measure of adipocyte insulin resistance, was calculated by multiplying fasting concentrations of free fatty acids and insulin (mmol×pmol/L). Comparison of various post-treatment parameters was performed using crossover ANOVA. This analysis takes into account specific treatment arm, treatment order, and treatment effects. Thus, carryover effects were explicitly tested for in the crossover study.
# The inventors conducted a random, triple-blinded, placebo-controlled, cross-over study using mifepristone (50 mg every 6 hours, 200 mg total daily dose) in overweight/obese individuals (n=16, 44% female) with pre-DM (pre-diabetes mellitus) or mild type 2 diabetes mellitus (glycated hemoglobin A1C […]). Mifepristone or placebo was administered for 9 days followed by a washout period of 6 to 8 weeks, and then crossover to the other treatment arm. At baseline and after each treatment period, the oral glucose tolerance test and frequently sampled intravenous glucose tolerance test were performed. Insulin sensitivity (SI) was measured using Matsuda index and oral glucose insulin sensitivity index (OGISI). Hepatic SI was assessed using hepatic insulin resistance index (HIRI), and adipose tissue SI was assessed using adipo-IR adipose tissue insulin sensitivity index (ATISI).
# The study in this example used a prospective, randomized, double-blind placebo-controlled, cross-over design in which eligible subjects were randomized in blocks of six to the initial arm of the study: either placebo or mifepristone (50 mg tablets every 6 hours) for 9 days. This was followed by a 6-8 week washout period. Subjects were then crossed over to the other treatment arm for an additional 9 days. The study was conducted at the National Institutes of Health (NIH) Clinical Center, Bethesda, Md., U.S.
# To reduce potential variability associated with estrogen in premenopausal women, testing was performed in the early follicular phase (days 1-7 of menstrual cycle). Baseline height and weight were measured after an overnight fast. […]
# [4] = Body weight, blood pressure and serum lipids after 9-day administration; conditions: 50 mg every 6 hours for 9 days; mean±SD, n=16
# Method: as §1
# Changes in body weight, BP and serum lipid concentrations for each study subject were evaluated at baseline and after 9-day administration of mifepristone or placebo, There were no significant differences observed in body weight or BMI between the treatment arms. BP was higher after mifepristone treatment for both systolic and diastolic values.
# [5] = 50 mg every 6 hours for 9 days, all subjects
smiles,measurement,setting,value
"CC#C[C@]1(O)CC[C@H]2[C@@H]3CCC4=CC(=O)CCC4=C3[C@@H](c3ccc(N(C)C)cc3)C[C@@]21C [Mifepristone, 11beta-[p-(dimethylamino)phenyl]-17alpha-(1-propynl)estra-4,9-dien-17beta-ol-3-one]",Serious adverse events,[1],No serious adverse events
same,"ACTH area under the curve (AUC), 24-hour",[2]; [5],574.5 ± 260.8 pg·min/mL
same,"Cortisol area under the curve (AUC), 24-hour",[2]; [5],255.4 ± 61.9 µg·min/dL
same,"Serum cortisol AUC, subjects with higher 24-hr UFC","[2]; mifepristone arm, subgroup with higher 24-hr UFC",284.9 ± 39.9 µg·min/dL
same,"Serum cortisol AUC, subjects with normal 24-hr UFC","[2]; mifepristone arm, subgroup with normal 24-hr UFC",229.8 ± 68.5 µg·min/dL
same,Fasting Glucose,[3]; post-treatment mean±SD,100.4 ± 15.3 mg/dL
same,Fasting Insulin,[3]; post-treatment mean±SD,95.7 ± 76.1 pmol/L and 95.6 ± 76.1 pmol/L
same,HOMA-IR,[3]; post-treatment mean±SD,3.58 ± 3.27
same,QUICKI,[3]; post-treatment mean±SD,0.332 ± 0.034
same,Adipose-tissue Insulin Resistance Index (Adipo-IR),"[3]; fasting FFA × fasting insulin, mean±SD",50.0±46.0 mmol×pmol/L
same,Body-Mass Index,[4],32.2 ± 3.9 kg/m^2
same,Diastolic Blood Pressure,[4],77 ± 9.2 mmHg
same,HDL Cholesterol,[4],41.3 ± 11.9 mg/dL
same,LDL Cholesterol,[4],97.1 ± 34.6 mg/dL
same,Systolic Blood Pressure,[4],130 ± 13 mmHg
same,Total Cholesterol,[4],163.6 ± 419 mg/dL
same,Triglycerides,[4],125.6 ± 65.6 mg/dL

# — patent US20220288091A1, “Method for Improving Insulin Sensitivity” (priority 2019, published 2022)
